Data taken from US20250011329A1, “SUBSTITUTED PIPERIDINYL-METHYLPURINE PYRIDINES AND RELATED COMPOUNDS AND THEIR USE IN TREATING DISEASES AND CONDITIONS” (K36 Therapeutics, Inc., priority 2023, published 2025).

How the values were obtained:
recombinant human NSD2 = recombinant human NSD2 (Homo sapiens (Human), UniProt O96028); test: NSD2 inhibitory assay (modified RBC HotSpot HMT Assay); assay type: biochemical; details: 2 nM NSD2, chicken oligonucleosomes 0.05 mg/ml, 3H-SAM 1 μM, 1 hour at 30° C.
Sequence of recombinant human NSD2 (O96028 2-1365 limits assumed): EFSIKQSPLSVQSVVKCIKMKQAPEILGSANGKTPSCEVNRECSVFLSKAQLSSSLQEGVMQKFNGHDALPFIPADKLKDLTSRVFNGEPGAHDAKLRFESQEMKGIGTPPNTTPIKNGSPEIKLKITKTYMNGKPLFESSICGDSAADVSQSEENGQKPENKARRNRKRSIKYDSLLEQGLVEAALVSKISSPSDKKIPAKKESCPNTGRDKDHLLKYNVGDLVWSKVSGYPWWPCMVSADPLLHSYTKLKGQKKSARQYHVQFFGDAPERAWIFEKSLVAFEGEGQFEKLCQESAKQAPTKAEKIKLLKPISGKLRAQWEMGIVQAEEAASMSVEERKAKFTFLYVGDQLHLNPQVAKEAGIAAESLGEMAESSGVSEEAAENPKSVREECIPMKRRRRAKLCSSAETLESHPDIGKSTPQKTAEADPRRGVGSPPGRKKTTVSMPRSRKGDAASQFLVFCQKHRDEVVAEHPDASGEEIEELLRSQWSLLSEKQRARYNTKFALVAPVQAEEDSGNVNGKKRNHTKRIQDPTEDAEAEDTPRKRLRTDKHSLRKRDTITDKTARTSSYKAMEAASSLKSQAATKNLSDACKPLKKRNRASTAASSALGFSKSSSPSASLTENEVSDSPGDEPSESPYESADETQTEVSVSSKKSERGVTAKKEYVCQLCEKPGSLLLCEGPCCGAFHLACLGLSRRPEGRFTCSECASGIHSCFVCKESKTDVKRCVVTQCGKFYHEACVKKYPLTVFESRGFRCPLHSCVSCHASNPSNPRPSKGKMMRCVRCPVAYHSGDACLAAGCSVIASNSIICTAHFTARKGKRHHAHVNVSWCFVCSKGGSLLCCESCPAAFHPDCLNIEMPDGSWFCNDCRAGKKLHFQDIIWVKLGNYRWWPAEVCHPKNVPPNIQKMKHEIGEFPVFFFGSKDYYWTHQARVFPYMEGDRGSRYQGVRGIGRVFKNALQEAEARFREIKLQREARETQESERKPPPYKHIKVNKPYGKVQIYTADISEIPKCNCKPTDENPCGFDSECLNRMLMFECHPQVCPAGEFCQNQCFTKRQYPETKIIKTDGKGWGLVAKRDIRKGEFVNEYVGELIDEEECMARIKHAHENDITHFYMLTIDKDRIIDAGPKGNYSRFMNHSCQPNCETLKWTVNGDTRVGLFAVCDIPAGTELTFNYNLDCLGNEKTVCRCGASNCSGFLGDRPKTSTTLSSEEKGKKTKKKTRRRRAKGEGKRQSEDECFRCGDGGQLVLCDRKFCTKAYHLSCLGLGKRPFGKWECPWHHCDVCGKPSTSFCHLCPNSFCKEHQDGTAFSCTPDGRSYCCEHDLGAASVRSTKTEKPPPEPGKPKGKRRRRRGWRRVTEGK
Description: Exemplary compounds were tested for NSD2 inhibitory activity using a modified RBC HotSpot HMT Assay.
A reaction mixture was prepared by adding oligonucleosomes from Chicken (0.05 mg/ml) to freshly prepared reaction buffer containing 50 mM Tris-HCl (pH 8.5), 50 mM NaCl, 5 mM MgCl2, 0.01% Brij35, 1 mM DTT, and 1% DMSO followed by the addition of recombinant human NSD2, (amino acids 2-end) with N-terminal His tag (2 nM; GenBank Accession No. NM_001042424; MW=155.5 kDa; expressed in Sf9 insect cells) and gentle mixing. The test compounds were diluted in DMSO, added to the reaction mixture in nanoliter amounts by using Acoustic Technology (Echo 550, LabCyte Inc. Sunnyvale, CA) and incubated for 20 minutes at room temperature. The reaction was initiated by the addition of S-Adenosyl-L-[methyl-^3H]methionine (3H-SAM; 1 μM), and the mixture was incubated for 1 hour at 30° C. The reaction mixture was delivered to filter paper and the methylated substrate was quantified by scintillation counting. Data analysis was performed using Excel and GraphPad Prism software for IC50 curve fits. For additional information on the histone methyltransferase assay, see, for example, Horiuchi K Y, et al., “Assay Development for Histone Methyltransferases,” Assay Drug Dev Technol. 2013 May; 11(4):227-36.

recombinant human NSD1 = recombinant human NSD1 (Homo sapiens, UniProt Q96L73); test: NSD1 inhibitory assay; assay type: biochemical; details: 2 nM NSD1, chicken oligonucleosomes 0.05 mg/ml, 3H-SAM 1 μM, 1 hour at 30° C.
Description: An exemplary compound was tested for NSD1 inhibitory activity.
A reaction mixture was prepared by adding oligonucleosomes from Chicken (0.05 mg/ml) to freshly prepared reaction buffer containing 50 mM Tris-HCl (pH 8.5), 50 mM NaCl, 5 mM MgCl2, 0.01% Brij35, 1 mM DTT, and 1% DMSO followed by the addition of recombinant human NSD1 (amino acids 2-end) with N-terminal His tag (2 nM) and gentle mixing. The test compounds were diluted in DMSO, added to the reaction mixture in nanoliter amounts by using Acoustic Technology (Echo 550, LabCyte Inc. Sunnyvale, CA) and incubated for 20 minutes at room temperature. The reaction was initiated by the addition of S-Adenosyl-L-[methyl-^3H] methionine (3H-SAM; 1 μM), and the mixture was incubated for 1 hour at 30° C. The reaction mixture was delivered to filter paper and the methylated substrate was quantified by scintillation counting. Data analysis was performed using Excel and GraphPad Prism software for IC50 curve fits. For additional information on the histone methyltransferase assay, see, for example, Horiuchi K Y, et al., “Assay Development for Histone Methyltransferases,” Assay Drug Dev Technol. 2013 May; 11(4):227-36.

Row | IC50 (recombinant human NSD2) | IC50 (recombinant human NSD1) | SMILES
1 | 2 to 20 nM |  | Nc1ncnc2c1ncn2Cc1cc(-c2cc(F)c(O)cc2F)ncc1N1CCC[C@](N)([C@H](O)C(F)F)C1 [Compound J, 4-(5-((R)-3-amino-3-((S)-2,2-difluoro-1-hydroxyethyl)piperidin-1-yl)-4-((6-amino-9H-purin-9-yl)methyl)pyridin-2-yl)-2,5-difluorophenol]
2 | < 2 nM | < 1 nM | COC(=O)COc1cc(F)c(-c2cc(Cn3cnc4c(N)ncnc43)c(N3CCC[C@](N)([C@H](O)C(F)F)C3)cn2)cc1F [III-35, methyl 2-(4-(5-((R)-3-amino-3-((S)-2,2-difluoro-1-hydroxyethyl)piperidin-1-yl)-4-((6-amino-9H-purin-9-yl)methyl)pyridin-2-yl)-2,5-difluorophenoxy)acetate]
